Results from ChEMBL document CHEMBL5236581, “A Versatile and Sustainable Multicomponent Platform for the Synthesis of Protein Degraders: Proof-of-Concept Application to BRD4-Degrading PROTACs” (J Med Chem, 2022).
In brackets after ≈: the same amount, converted by molar mass. Activity calls are given as the source filed them. The rule behind the calls is not given here. Where a SMILES comes first, the peptide text is derived from it. [ ]: non-standard residue; d: D form. The star is where a group is joined. JQ1acid = Cc1sc2c(c1C)C(c1ccc(Cl)cc1)=N[C@@H](CC(=O)*)c1nnc(C)n1-2; NHBn(4-(4-Me-thiazol-5-yl)) = Cc1ncsc1-c1ccc(CN*)cc1; Hyp = O=C(O)[C@@H]1C[C@@H](O)CN1; Tle = CC(C)(C)[C@H](N)C(=O)O; Sar = CNCC(=O)O

Tests used:
[1] = Thermodynamic solubility of compound in HCL at pH 2 incubated for 2 hrs with shaking by LC-UV analysis; format: physicochemical; conditions: read-out: Therm_solubility
[2] = Thermodynamic solubility of compound in phosphate buffer at pH 7.4 incubated for 2 hrs with shaking by LC-UV analysis; format: physicochemical; conditions: read-out: Therm_solubility
[3] = molecular target: von Hippel-Lindau disease tumor suppressor/Bromodomain-containing protein 4 (Homo sapiens) (UniProt O60885+P40337); assay: Protac activity at BRD4/VHL E3 ligase in human MDA-MB-231 cells assessed as decrease in BRD4 expression at 1 uM incubated for 4 to 24 hrs by Western blot analysis; format: cell-based; conditions: time lower 4.0 hrs, time upper […]
von Hippel-Lindau disease tumor suppressor/Bromodomain-containing protein 4 (Homo sapiens), sequence (P40337 whole entry, looked up, other chains not shown): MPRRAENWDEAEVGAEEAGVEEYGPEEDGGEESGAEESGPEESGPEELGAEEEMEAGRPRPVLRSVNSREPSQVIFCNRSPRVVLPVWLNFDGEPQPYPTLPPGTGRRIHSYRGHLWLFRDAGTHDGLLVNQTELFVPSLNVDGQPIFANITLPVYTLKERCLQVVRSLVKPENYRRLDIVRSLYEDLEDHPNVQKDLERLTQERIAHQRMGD

Structure (SMILES)	solubility thermodynamic at 2 h [1]	solubility thermodynamic at 2 h [2]	Activity [3]
Cc1sc2c(c1C)C(c1ccc(Cl)cc1)=N[C@@H](CC(=O)NCCCCNC(=O)COc1cccc3c1C(=O)N(C1CCC(=O)NC1=O)C3=O)c1nnc(C)n1-2 (stereo not given in full)	171 µM (≈ 134 µg/mL)	60 µM (≈ 47.1 µg/mL)	
Cc1ncsc1-c1ccc(CNC(=O)[C@@H]2C[C@@H](O)CN2C(=O)[C@@H](NC(=O)CCCNC(=O)CN2CCN(C(=O)C[C@@H]3N=C(c4ccc(Cl)cc4)c4c(sc(C)c4C)-n4c(C)nnc43)CC2)C(C)(C)C)cc1			inactive
Cc1ncsc1-c1ccc(CNC(=O)[C@@H]2C[C@@H](O)CN2C(=O)[C@@H](NC(=O)CNC(=O)CN(C)C(=O)C[C@@H]2N=C(c3ccc(Cl)cc3)c3c(sc(C)c3C)-n3c(C)nnc32)C(C)(C)C)cc1 (JQ1acid-[Sar]G[Tle][Hyp]-{NHBn(4-(4-Me-thiazol-5-yl))})			inactive
Cc1ncsc1-c1ccc(CNC(=O)[C@@H]2C[C@@H](O)CN2C(=O)[C@@H](NC(=O)CNC(=O)CN2CCN(C(=O)C[C@@H]3N=C(c4ccc(Cl)cc4)c4c(sc(C)c4C)-n4c(C)nnc43)CC2)C(C)(C)C)cc1			inactive
